According to patent US20090227533A1, “miR-34 Regulated Genes and Pathways as Targets for Therapeutic Intervention” (priority 2007, published 2009):

Key:
A549 cells = assay: Alamar Blue proliferation assay, lung cancer cells; assay type: cell-based, human; conditions: hsa-miR-34a 30 nM, lipid transfection, 72 hours, normalized to NC (100%)
Description: (§1) The inventors assessed the therapeutic effect of hsa-miR-34a for lung cancer by using eight individual lung cancer cell lines. To measure cellular proliferation of lung cancer cells, the following non-small cell lung cancer (NSCLC) cells were used: cells derived from lung adenocarcinoma (A549, H522, Calu-3, HCC2935), cells derived from lung squamous cell carcinoma (H226), cell derived from lung adenosquamous cell carcinoma (H596), cells derived from lung bronchioalveolar carcinoma (H1650), and cells derived from lung large cell carcinoma (H460). Synthetic hsa-miR-34a (Pre-miR™-hsa-miR-34a, Ambion cat. no. AM17100) or negative control (NC) miRNA (Pre-miR™ microRNA Precursor Molecule-Negative Control #2; Ambion cat. no. AM17111) was delivered via lipid-based transfection into A549, H522, H596, Calu-3, HCC2935, H1650, H460 cells and via electroporation into H226 cells.
(§2) Lipid-based reverse transfections were carried out in triplicate according to a published protocol (Ovcharenko et al., 2005) and the following parameters: cells (5,000-12,000 per 96 well), 0.1-0.2 μl Lipofectamine™ 2000 (cat. no. 11668-019, Invitrogen Corp., Carlsbad, Calif., USA) in 20 μl OptiMEM (Invitrogen), 30 nM final concentration of miRNA in 100 μl. Electroporation of H226 cells was carried out using the BioRad Gene Pulser Xcell™ instrument (BioRad Laboratories Inc., Hercules, Calif., USA) with the following settings: 5×10^6 cells with 5 μg miRNA in 200 μl OptiMEM (1.6 μM miRNA), square wave pulse at 250 V for 5 ms. Electroporated H226 cells were seeded at 7,000 cells per 96-well in a total volume of 100 μl. All cells except for Calu-3 cells were harvested 72 hours post transfection or electroporation for assessment of cellular proliferation. Calu-3 cells were harvested 10 days post transfection. Proliferation assays were performed using Alamar Blue (Invitrogen) following the manufacturer's instructions. As a control for inhibition of cellular proliferation, siRNA against the motor protein kinesin 11, also known as Eg5, was used. Eg5 is essential for cellular survival of most eukaryotic cells and a lack thereof leads to reduced cell proliferation and cell death (Weil et al., 2002). siEg5 was used in lipid-based transfection following the same experimental parameters that apply to miRNA. The inventors also used a DNA topoisomerase II inhibitor, etoposide, at a final concentration of 10 μM and 50 μM as an internal standard for the potency of miRNAs. Etoposide is an FDA-approved DNA topoisomerase II inhibitor in the treatment of lung cancer. […] Percent (%) proliferation values from the Alamar Blue assay were normalized to values from cells treated with negative control miRNA. Percent proliferation of hsa-miR-34a treated cells relative to cells treated with negative control miRNA (100%) is shown in Table 7 and in FIG. 1.

Calu-3 cells = assay: Alamar Blue proliferation assay, lung cancer cells; assay type: cell-based, human; conditions: 10 days post transfection
Description: as §1, §2

H1650 cells = assay: Alamar Blue proliferation assay, lung cancer cells; assay type: cell-based, human; conditions: hsa-miR-34a 30 nM, lipid transfection, 72 hours, normalized to NC (100%)
Description: as §1, §2

H460 cells = assay: Alamar Blue proliferation assay, lung cancer cells; assay type: cell-based, human; conditions: hsa-miR-34a 30 nM, lipid transfection, 72 hours, normalized to NC (100%)
Description: as §1, §2

H522 cells = assay: Alamar Blue proliferation assay, lung cancer cells; assay type: cell-based, human; conditions: hsa-miR-34a 30 nM, lipid transfection, 72 hours, normalized to NC (100%)
Description: as §1, §2

HCC2935 cells = assay: Alamar Blue proliferation assay, lung cancer cells; assay type: cell-based, human; conditions: hsa-miR-34a 30 nM, lipid transfection, 72 hours, normalized to NC (100%)
Description: as §1, §2

[1] = test system: Du145 prostate cancer cells; assay: Long-term growth curve with repeated electroporation; assay type: cell-based, human
Description: (§3) To evaluate the therapeutic activity of hsa-miR-34a over an extended period of time, we conducted growth curve experiments in the presence of miRNA for up to 22 days. Since in vitro transfections of naked interfering RNAs, such as synthetic miRNA, are transient by nature and compromised by the dilution of the oligo during ongoing cell divisions, miRNA was administered at multiple time points (Bartlett et al. 2006; Bartlett et al. 2007). To accommodate miRNA delivery into a large quantity of cells, the inventors employed the electroporation method to deliver hsa-miR-34a or negative control miRNA into PPC-1, PC3, and Du145 human prostate cancer cells. Briefly, 1×10^6 PPC-1 or PC3 cells, or 0.5×10^6 Du145 cells were electroporated with 1.6 μM hsa-miR-34a or negative control using the BioRad Gene Pulser Xcell™ instrument (BioRad Laboratories Inc., Hercules, Calif., USA), seeded and propagated in regular growth medium. Experiments with PC3 and Du145 cells were carried out in triplicates. When the control cells reached confluence (days 4 and 11 for PPC-1; days 7 and 14 for PC3 and Du145), cells were harvested, counted and electroporated again with the respective miRNAs. To ensure similar treatment of both conditions as well as to accommodate exponential growth, the cell numbers used for the second and third electroporation were titrated down to the lowest count. The population doubling was calculated from these electroporation events using the formula PD=ln(Nf/N0)/ln 2 and adjusting for the fact that approximately 72% of newly seeded cells adhere to the plate. Cell counts were extrapolated and plotted on a linear scale (FIG. 6). Arrows represent electroporation days. Standard deviations are included in the graphs.

[2] = test system: PC3 prostate cancer cells; assay: as above; assay type: cell-based, human
Description: as §3

[3] = test system: PPC-1 prostate cancer cells; assay: as above; assay type: cell-based, human; conditions: by day 22; 1.6 μM electroporated repeatedly
Description: as §3

[4] = test system: basal cell carcinoma cells (TE354T); conditions: cited from earlier work
Jurkat = conditions: cited from earlier work

## hsa-miR-34a: synthetic miRNA; mature sequence UGGCAGUGUCUUAGCUGGUUGUU (MIMAT0000255; SEQ ID NO:1) (synthetic miRNA, chemistry not given here)
A549 cells
  % proliferation: 75.95%
Calu-3 cells; Calu-3, hsa-miR-34a 30 nM, lipid transfection, normalized to NC (100%)
  % proliferation: 28.51%
Calu-3 cells; Calu-3 cells, 30 nM, relative to negative control miRNA
  reduction of proliferation: 71.49%
H1650 cells
  % proliferation: 78.37%
H460 cells
  % proliferation: 77.46%
H522 cells
  % proliferation: 94.41%
HCC2935 cells
  % proliferation: 80.19%
[1]; Du145, day 19
  cells relative to cells electroporated with negative control miRNA: 6.9%
[1]; day 19, 1.6 μM electroporated repeatedly, relative to control cells (100%)
  inhibition of Du145 cell growth: 93.1%
[2]; PC3, day 21
  cells relative to cells electroporated with negative control miRNA: 2.8%
[2]; day 21, 1.6 μM electroporated repeatedly, relative to control cells (100%)
  inhibition of PC3 cell growth: 97.2%
[3]
  fate of PPC-1 cells in long-term culture: eliminated
[4]
  proliferation: inhibits the proliferation
Jurkat
  programmed cell death (apoptosis): increased
